# In patent US10004701B2, “Methods and compositions for treating infection” (UNIVERSITY OF ROCHESTER, priority 2012, dated 2018):
# Counter-ions that a name gives are not always drawn. Like-named read-outs stand apart in the source and are kept apart here.
# Experiments:
# Assay in all cases: AK assay 384-well format, Prestwick library screening
# E. faecium = assay type: cell-based, Enterococcus faecium; conditions: 50 μM final drug concentration; for fold induction at 50 µM: Enterococcus faecium, 3 h
# [1] = test system: S. aureus strain USA300-0114; assay type: cell-based, Staphylococcus aureus; conditions: 50 μM final drug concentration; for fold induction at 50 µM: Staphylococcus aureus, USA300, 3 h
# E. coli = assay type: cell-based, Escherichia coli; conditions: 50 μM final drug concentration; for fold induction at 50 µM: Escherichia coli, 3 h
# [2] = test system: A. baumannii strain 98-37-09; assay type: cell-based, Acinetobacter baumannii; conditions: 50 μM final drug concentration; for fold induction at 50 µM: Acinetobacter baumannii, 983709, 3 h
# P. aeruginosa = assay type: cell-based, Pseudomonas aeruginosa; conditions: 50 μM final drug concentration; for fold induction at 50 µM: Pseudomonas aeruginosa, 3 h
# E. cloacae = assay type: cell-based, Enterobacter cloacae; conditions: 50 μM final drug concentration; for fold induction at 50 µM: Enterobacter cloacae, 3 h
# K. pneumoniae = assay type: cell-based, Klebsiella pneumoniae; conditions: 50 μM final drug concentration; for fold induction at 50 µM: Klebsiella pneumoniae, 3 h
# [3] = cutoff for positive-scoring molecules 3-fold increase, read-out: AK-based Prestwick Library Screening Results, E. faecium (fold increase in extracellular AK activity)
# [4] = cutoff for positive-scoring molecules 3-fold increase, read-out: AK-based Prestwick Library Screening Results, S. aureus (fold increase in extracellular AK activity)
# [5] = cutoff for positive-scoring molecules 3-fold increase, read-out: AK-based Prestwick Library Screening Results, E. coli (fold increase in extracellular AK activity)
# [6] = cutoff for positive-scoring molecules 3-fold increase, read-out: AK-based Prestwick Library Screening Results, A. baumannii (fold increase in extracellular AK activity)
# [7] = cutoff for positive-scoring molecules 3-fold increase, read-out: AK-based Prestwick Library Screening Results, P. aeruginosa (fold increase in extracellular AK activity)
# [8] = cutoff for positive-scoring molecules 3-fold increase, read-out: AK-based Prestwick Library Screening Results, E. cloacae (fold increase in extracellular AK activity)
# [9] = cutoff for positive-scoring molecules 3-fold increase, read-out: AK-based Prestwick Library Screening Results, K. pneumoniae (fold increase in extracellular AK activity)
# [10] = planktonic, cutoff for positive 3-fold increase
smiles,measurement,setting,value
CCN1C[C@]2(COC)CC[C@H](O)[C@]34C1[C@@](O)([C@@H](OC)[C@H]23)[C@@]1(O)C[C@H](OC)[C@H]2C[C@@H]4[C@@H]1[C@H]2OC [Delsoline],fold induction at 50 µM,"E. faecium; planktonic, […], read-out: AK-based Prestwick Library Screening Results, E. faecium (fold increase in extracellular AK activity)",0.9
same,fold induction at 50 µM,"[1]; planktonic, […], read-out: AK-based Prestwick Library Screening Results, S. aureus (fold increase in extracellular AK activity)",0.8
same,fold induction at 50 µM,"E. coli; planktonic, […], read-out: AK-based Prestwick Library Screening Results, E. coli (fold increase in extracellular AK activity)",0.9
same,fold induction at 50 µM,"[2]; planktonic, […], read-out: AK-based Prestwick Library Screening Results, A. baumannii (fold increase in extracellular AK activity)",0.9
same,fold induction at 50 µM,"P. aeruginosa; planktonic, […], read-out: AK-based Prestwick Library Screening Results, P. aeruginosa (fold increase in extracellular AK activity)",0.8
same,fold induction at 50 µM,"E. cloacae; planktonic, […], read-out: AK-based Prestwick Library Screening Results, E. cloacae (fold increase in extracellular AK activity)",1.3
same,fold induction at 50 µM,"K. pneumoniae; planktonic, […], read-out: AK-based Prestwick Library Screening Results, K. pneumoniae (fold increase in extracellular AK activity)",0.7
CCOC(=O)Oc1c(OC)cc(C(=O)O[C@@H]2C[C@@H]3CN4CCc5c([nH]c6cc(OC)ccc56)[C@H]4C[C@@H]3[C@H](C(=O)OC)[C@H]2OC)cc1OC [Syrosingopine],fold induction at 50 µM,"E. faecium; planktonic E. faecium, cutoff for positive-scoring molecules 3-fold increase, read-out: AK-based Prestwick Library Screening Results, E. faecium (increase in extracellular AK activity)",0.9
same,fold induction at 50 µM,"[1]; planktonic S. aureus, cutoff for positive-scoring molecules 3-fold increase, read-out: AK-based Prestwick Library Screening Results, S. aureus (increase in extracellular AK activity)",0.3
same,fold induction at 50 µM,"E. coli; planktonic E. coli, cutoff for positive-scoring molecules 3-fold increase, read-out: AK-based Prestwick Library Screening Results, E. coli (increase in extracellular AK activity)",0.6
same,fold induction at 50 µM,"[2]; planktonic A. baumannii, cutoff for positive-scoring molecules 3-fold increase, read-out: AK-based Prestwick Library Screening Results, A. baumannii (increase in extracellular AK activity)",0.6
same,fold induction at 50 µM,"P. aeruginosa; planktonic P. aeruginosa, cutoff for positive-scoring molecules 3-fold increase, read-out: AK-based Prestwick Library Screening Results, P. aeruginosa (increase in extracellular AK activity)",0.5
same,fold induction at 50 µM,"E. cloacae; planktonic E. cloacae, cutoff for positive-scoring molecules 3-fold increase, read-out: AK-based Prestwick Library Screening Results, E. cloacae (increase in extracellular AK activity)",0.6
same,fold induction at 50 µM,"K. pneumoniae; planktonic K. pneumoniae, cutoff for positive-scoring molecules 3-fold increase, read-out: AK-based Prestwick Library Screening Results, K. pneumoniae (increase in extracellular AK activity)",0.5
COc1c2occc2c(OC)c2c(=O)cc(C)oc12 [Khellin],fold induction at 50 µM,"E. faecium; 384-well format, cutoff for positive-scoring molecules 3-fold increase, read-out: AK-based Prestwick Library Screening Results, E. faecium (increase in extracellular AK activity)",0.9
same,fold induction at 50 µM,"[1]; 384-well format, cutoff for positive-scoring molecules 3-fold increase, read-out: AK-based Prestwick Library Screening Results, S. aureus (increase in extracellular AK activity)",0.7
same,fold induction at 50 µM,"E. coli; 384-well format, cutoff for positive-scoring molecules 3-fold increase, read-out: AK-based Prestwick Library Screening Results, E. coli (increase in extracellular AK activity)",0.6
same,fold induction at 50 µM,"[2]; 384-well format, cutoff for positive-scoring molecules 3-fold increase, read-out: AK-based Prestwick Library Screening Results, A. baumannii (increase in extracellular AK activity)",0.7
same,fold induction at 50 µM,"P. aeruginosa; 384-well format, cutoff for positive-scoring molecules 3-fold increase, read-out: AK-based Prestwick Library Screening Results, P. aeruginosa (increase in extracellular AK activity)",0.7
same,fold induction at 50 µM,"E. cloacae; 384-well format, cutoff for positive-scoring molecules 3-fold increase, read-out: AK-based Prestwick Library Screening Results, E. cloacae (increase in extracellular AK activity)",0.7
same,fold induction at 50 µM,"K. pneumoniae; 384-well format, cutoff for positive-scoring molecules 3-fold increase, read-out: AK-based Prestwick Library Screening Results, K. pneumoniae (increase in extracellular AK activity)",0.6
O=C(O)CCC(=O)Nc1ccc(S(=O)(=O)Nc2nccs2)cc1 [Succinylsulfathiazole],fold induction at 50 µM,E. faecium; [3],1
same,fold induction at 50 µM,[1]; [4],1.3
same,fold induction at 50 µM,E. coli; [5],1.4
same,fold induction at 50 µM,[2]; [6],1.3
same,fold induction at 50 µM,P. aeruginosa; [7],1.1
same,fold induction at 50 µM,E. cloacae; [8],1.4
same,fold induction at 50 µM,K. pneumoniae; [9],1.1
CCCC(=O)Nc1ccc(OCC(O)CNC(C)C)c(C(C)=O)c1 (stereo not drawn) [Acebutolol hydrochloride],fold induction at 50 µM,"E. faecium; planktonic E. faecium, 384-well, cutoff for positive-scoring molecules 3-fold increase, read-out: AK-based Prestwick Library Screening Results: E. faecium (increase in extracellular AK activity)",1.1
same,fold induction at 50 µM,"[1]; planktonic S. aureus, 384-well, cutoff for positive-scoring molecules 3-fold increase, read-out: AK-based Prestwick Library Screening Results: S. aureus (increase in extracellular AK activity)",1.1
same,fold induction at 50 µM,"E. coli; planktonic E. coli, 384-well, cutoff for positive-scoring molecules 3-fold increase, read-out: AK-based Prestwick Library Screening Results: E. coli (increase in extracellular AK activity)",1.3
same,fold induction at 50 µM,"[2]; planktonic A. baumannii, 384-well, cutoff for positive-scoring molecules 3-fold increase, read-out: AK-based Prestwick Library Screening Results: A. baumannii (increase in extracellular AK activity)",1.3
same,fold induction at 50 µM,"P. aeruginosa; planktonic P. aeruginosa, 384-well, cutoff for positive-scoring molecules 3-fold increase, read-out: AK-based Prestwick Library Screening Results: P. aeruginosa (increase in extracellular AK activity)",1.1
same,fold induction at 50 µM,"E. cloacae; planktonic E. cloacae, 384-well, cutoff for positive-scoring molecules 3-fold increase, read-out: AK-based Prestwick Library Screening Results: E. cloacae (increase in extracellular AK activity)",1.2
same,fold induction at 50 µM,"K. pneumoniae; planktonic K. pneumoniae, 384-well, cutoff for positive-scoring molecules 3-fold increase, read-out: AK-based Prestwick Library Screening Results: K. pneumoniae (increase in extracellular AK activity)",0.9
OC(CCN1CCCC1)(c1ccccc1)C1CCCCC1 (stereo not drawn) [Procyclidine hydrochloride],fold induction at 50 µM,E. faecium; [3],1.1
same,fold induction at 50 µM,[1]; [4],1.2
same,fold induction at 50 µM,E. coli; [5],1.4
same,fold induction at 50 µM,[2]; [6],1.1
same,fold induction at 50 µM,P. aeruginosa; [7],1.2
same,fold induction at 50 µM,E. cloacae; [8],1.8
same,fold induction at 50 µM,K. pneumoniae; [9],0.9
CN1[C@@H]2C[C@@H](OC(=O)[C@H](CO)c3ccccc3)C[C@H]1[C@@H]1O[C@@H]12 [Scopolamine hydrochloride],fold induction at 50 µM,"E. faecium; […], read-out: AK-based Prestwick Library Screening Results, E. faecium (fold increase in extracellular AK activity)",1
same,fold induction at 50 µM,"[1]; […], read-out: AK-based Prestwick Library Screening Results, S. aureus (fold increase in extracellular AK activity)",1.2
same,fold induction at 50 µM,"E. coli; […], read-out: AK-based Prestwick Library Screening Results, E. coli (fold increase in extracellular AK activity)",1.2
same,fold induction at 50 µM,"[2]; […], read-out: AK-based Prestwick Library Screening Results, A. baumannii (fold increase in extracellular AK activity)",1.2
same,fold induction at 50 µM,"P. aeruginosa; […], read-out: AK-based Prestwick Library Screening Results, P. aeruginosa (fold increase in extracellular AK activity)",1.1
same,fold induction at 50 µM,"E. cloacae; […], read-out: AK-based Prestwick Library Screening Results, E. cloacae (fold increase in extracellular AK activity)",1.5
same,fold induction at 50 µM,"K. pneumoniae; […], read-out: AK-based Prestwick Library Screening Results, K. pneumoniae (fold increase in extracellular AK activity)",1.1
CNCCc1ccccn1.CS(=O)(=O)O.CS(=O)(=O)O [Betahistine mesylate],"AK-based Prestwick Library Screening Results, E. faecium (fold increase in extracellular AK activity)",E. faecium; [10],0.9
same,"AK-based Prestwick Library Screening Results, S. aureus (fold increase in extracellular AK activity)",[1]; [10],0.9
same,"AK-based Prestwick Library Screening Results, E. coli (fold increase in extracellular AK activity)",E. coli; [10],1.4
same,"AK-based Prestwick Library Screening Results, A. baumannii (fold increase in extracellular AK activity)",[2]; [10],1.2
same,"AK-based Prestwick Library Screening Results, P. aeruginosa (fold increase in extracellular AK activity)",P. aeruginosa; [10],1.1
same,"AK-based Prestwick Library Screening Results, E. cloacae (fold increase in extracellular AK activity)",E. cloacae; [10],1.3
same,"AK-based Prestwick Library Screening Results, K. pneumoniae (fold increase in extracellular AK activity)",K. pneumoniae; [10],1.1
Cn1cc[nH]c1=S [Methimazole],fold induction at 50 µM,E. faecium; [3],0.9
same,fold induction at 50 µM,[1]; [4],1
same,fold induction at 50 µM,E. coli; [5],1.2
same,fold induction at 50 µM,[2]; [6],1.4
same,fold induction at 50 µM,P. aeruginosa; [7],1
same,fold induction at 50 µM,E. cloacae; [8],27.1
same,fold induction at 50 µM,K. pneumoniae; [9],1
